The source made the active and inactive calls. No rule for the calls is given here. *1 amine or outer side, *2 acyl side, *3 side chain or, on linkers, in order; H or OH if unused. Where a SMILES comes first, the peptide text is derived from it. Bridges are numbered along the chain shown (N, C = ends). Roman numbers before positions name the chains, in order. [ ]: non-standard residue; d: D form. Actinocin(9to1) = Cc1c2oc3c(C)ccc(C(=O)[*:1])c3nc-2c(C(=O)[*:2])c(N)c1=O; NMeV = CN[C@H](C(=O)O)C(C)C; Sar = CNCC(=O)O
tested on: ADSC/ECFC co-culture, VEGF-stimulated, CD31 tube area; test: inhibition of endothelial tube formation, dose response, imaging, VEGF stimulation, CD31 staining, tube area, IC50 (AID 1117337)

Compound | IC50
Cc1ccc([N+](=O)[O-])[c]2c1[O][Hg]2 | 0.668 µM
O=C(Nc1ccc(Br)cc1)c1cc(Br)c(Br)s1 | > 10 µM (inactive)
O=C1CC(c2ccc(Cl)cc2)CC(=O)N1 | > 10 µM (inactive)
C=C(C)[C@H]1Cc2c(ccc3c2O[C@@H]2COc4cc(OC)c(OC)cc4[C@@H]2C3=O)O1 | 0.0257 µM
O=C(O)C1CCC1 | > 10 µM (inactive)
CC(=O)Oc1cccc2c1C(=O)c1c(OC(C)=O)cc(C(=O)O)cc1C2=O | > 10 µM (inactive)
CCCCCCCCCCCCCCNCCO | > 10 µM (inactive)
CN1CCC[C@@H]1CCO[C@](C)(c1ccccc1)c1ccc(Cl)cc1 | > 10 µM (inactive)
CC[C@]1(O)C[C@H]2CN(CCc3c([nH]c4ccccc34)[C@@](C(=O)OC)(c3cc4c(cc3OC)N(C=O)[C@H]3[C@@](O)(C(=O)OC)[C@H](OC(C)=O)[C@]5(CC)C=CCN6CC[C@]43[C@@H]65)C2)C1 | 0.0065 µM
CC(=O)[C@]1(O)Cc2c(O)c3c(c(O)c2[C@@H](O[C@H]2C[C@H](N)[C@H](O)[C@H](C)O2)C1)C(=O)c1ccccc1C3=O | 0.0208 µM
Cc1cccc(C)c1NC(=O)CN1CCN(CCCC(c2ccc(F)cc2)c2ccc(F)cc2)CC1 | > 10 µM (inactive)
N/C(=N\N=C\c1ccc(Cl)cc1)N/N=C/c1ccc(Cl)cc1 | > 10 µM (inactive)
COC(=O)C1=C(C)NC(C)=C(C(=O)OCCN2CCN(C(c3ccccc3)c3ccccc3)CC2)C1c1cccc([N+](=O)[O-])c1 (stereo unspecified) | > 10 µM (inactive)
COC(=O)C(Cl)C(=O)OC | > 10 µM (inactive)
COc1c(C)c2c(c(O)c1C/C=C(\C)CCC(=O)OCCN1CCOCC1)C(=O)OC2 | 1.26 µM
Cc1cc(-c2ccc(N=Nc3c(S(=O)(=O)O)cc4cc(S(=O)(=O)O)cc(N)c4c3O)c(C)c2)ccc1N=Nc1c(S(=O)(=O)O)cc2cc(S(=O)(=O)O)cc(N)c2c1O | > 10 µM (inactive)
Cc1c(C)c2c(c(C)c1OC(=O)CCC(=O)O)CC[C@@](C)(CCC[C@H](C)CCC[C@H](C)CCCC(C)C)O2 | > 10 µM (inactive)
CC(C)(C)C(=O)OCOP(=O)(COCCn1cnc2c(N)ncnc21)OCOC(=O)C(C)(C)C | 0.391 µM
Clc1ccc(CO/N=C(\Cn2ccnc2)c2ccc(Cl)cc2Cl)c(Cl)c1 | > 10 µM (inactive)
CC[C@]12CCCN3CCc4c(n(c5ccccc45)C(=O)C1)[C@@H]32 | > 10 µM (inactive)
CC(C)OC(=O)OCOP(=O)(CO[C@H](C)Cn1cnc2c(N)ncnc21)OCOC(=O)OC(C)C | 3.84 µM

Compound | IC50
CN1CCN(CCCN2c3ccccc3Sc3ccc(C(F)(F)F)cc32)CC1 | > 10 µM (inactive)
CC(C)=CCC/C(C)=C/CC/C(C)=C/C(=O)OCC(=O)[C@@]1(O)CC[C@H]2[C@@H]3CCC4=CC(=O)C=C[C@]4(C)[C@H]3[C@@H](O)C[C@@]21C | 3.34 µM
COCCOC(=O)C1=C(C)NC(C)=C(C(=O)OC/C=C/c2ccccc2)C1c1cccc([N+](=O)[O-])c1 (stereo unspecified) | 6.42 µM (inactive)
Oc1ccc(Cl)cc1Sc1cc(Cl)ccc1O | 3.53 µM
CC(C)(C)CC(C)(C)c1ccc(OCCOCC[N+](C)(C)Cc2ccccc2)cc1 | 3.74 µM
CC12CCC(CC1)C(C)(C)O2 | > 10 µM (inactive)
O=C(Nc1ccc([N+](=O)[O-])cc1Cl)c1cc(Cl)ccc1O | 0.112 µM
CNC(=O)Oc1cccc2ccccc12 | > 10 µM (inactive)
CCCCCCCCOc1ccccc1C(=O)Nc1ccc(C(=O)OCC[N+](C)(CC)CC)cc1 | > 10 µM (inactive)
O=C(OCCO)c1ccccc1O | > 10 µM (inactive)
C=CCCCCCCCCC(=O)OC | > 10 µM (inactive)
COc1cc([C@@H]2c3cc4c(cc3[C@@H](O[C@@H]3O[C@@H]5CO[C@@H](C)O[C@@H]5[C@H](O)[C@@H]3O)[C@H]3COC(=O)[C@H]23)OCO4)cc(OC)c1O | 0.109 µM
Oc1ccc2[nH]cc(CCCCN3CC=C(c4ccccc4)CC3)c2c1 | 4.04 µM
CC1=C(C(=O)OC(C)C)C(c2cccc([N+](=O)[O-])c2)C(C(=O)OC2CN(C(c3ccccc3)c3ccccc3)C2)=C(N)N1 (stereo unspecified) | 3.58 µM
CC(=O)O[C@H]1C[C@H](O[C@H]2[C@@H](O)C[C@H](O[C@@H]3[C@@H](O)C[C@H](O[C@H]4CC[C@@]5(C)[C@H](CC[C@@H]6[C@H]5C[C@@H](O)[C@]5(C)[C@@H](C7=CC(=O)OC7)CC[C@]65O)C4)O[C@@H]3C)O[C@@H]2C)O[C@H](C)[C@H]1O[C@@H]1O[C@H](CO)[C@@H](O)[C@H](O)[C@@H]1O | 0.0702 µM
C[C@@H]1C[C@H]2[C@@H]3CCC4=CC(=O)C=C[C@]4(C)[C@@]3(Cl)[C@@H](O)C[C@]2(C)[C@@]1(OC(=O)c1ccco1)C(=O)CCl | 4.99 µM
O=C(Nc1ccc(Br)cc1)c1cc(Br)cc(Br)c1O | 1.81 µM
O=C(Nc1ccc(Cl)cc1)Nc1ccc(Cl)c(Cl)c1 | > 10 µM (inactive)
C=CC(C)(O)CCC=C(C)CCC=C(C)C (stereo unspecified) | > 10 µM (inactive)
O=c1[nH]cc(F)c(=O)[nH]1 | > 10 µM (inactive)
O=C1NCCN1CCN1CCC(c2cn(-c3ccc(F)cc3)c3ccc(Cl)cc23)CC1 | > 10 µM (inactive)

Compound | IC50
O=c1[nH]c(=O)n([C@H]2C[C@H](O)[C@@H](CO)O2)cc1I | 0.681 µM
CC(=O)O[C@@]12CO[C@@H]1C[C@H](O)[C@@]1(C)C(=O)[C@H](O)C3=C(C)[C@@H](OC(=O)[C@H](O)[C@@H](NC(=O)OC(C)(C)C)c4ccccc4)C[C@@](O)([C@@H](OC(=O)c4ccccc4)[C@H]21)C3(C)C | 0.001 µM
O=C(CCCN1CCC(O)(c2cccc(C(F)(F)F)c2)CC1)c1ccc(F)cc1 | > 10 µM (inactive)
COc1cccc(CCc2ccccc2OCC(CN(C)C)OC(=O)CCC(=O)O)c1 (stereo unspecified) | > 10 µM (inactive)
O=C(N/N=C/c1ccccc1O)c1ccncc1 | > 10 µM (inactive)
Cc1c2oc3c(C)ccc(C(=O)N[C@@H]4C(=O)N[C@H](C(C)C)C(=O)N5CCC[C@H]5C(=O)N(C)CC(=O)N(C)[C@@H](C(C)C)C(=O)O[C@@H]4C)c3nc-2c(C(=O)N[C@@H]2C(=O)N[C@H](C(C)C)C(=O)N3CCC[C@H]3C(=O)N(C)CC(=O)N(C)[C@@H](C(C)C)C(=O)O[C@@H]2C)c(N)c1=O (I: T[dV]P[Sar][NMeV] / II: T[dV]P[Sar][NMeV]; ester I:1-I:C, II:1-II:C; linker I:N-II:N via Actinocin(9to1)) | 0.001 µM
O=C(O)CCC(=O)OC[C@@H](NC(=O)C(Cl)Cl)[C@H](O)c1ccc([N+](=O)[O-])cc1 | > 10 µM (inactive)
COC(=O)C1=C(C)NC(C)=C(C(=O)O[C@@H]2CCCN(Cc3ccccc3)C2)[C@@H]1c1cccc([N+](=O)[O-])c1 | > 10 µM (inactive)
CCCCC(CC)CN=C(N)NC(N)=NCCCCCCN=C(N)NC(N)=NCC(CC)CCCC (stereo unspecified) | 0.408 µM
Cc1cc(O)c2ccccc2c1O | 4.89 µM
O=C(NC1CCN(CCc2c[nH]c3ccccc23)CC1)c1ccccc1 | > 10 µM (inactive)
CN(C)c1ccc(C(=C2C=CC(=[N+](C)C)C=C2)c2ccc(N(C)C)cc2)cc1 | 0.186 µM
CCCCCCCC/C=C\CCCCCCCCN | > 10 µM (inactive)
ClC1=C(Cl)C2(Cl)C(CBr)CC1(Cl)C2(Cl)Cl (stereo unspecified) | > 10 µM (inactive)
CN1CCN(c2cc3c(nn2)Oc2ccccc2N3C)CC1 | > 10 µM (inactive)
Cn1cc(S(C)=O)c(=O)c2ccc(F)cc21 (stereo unspecified) | > 10 µM (inactive)
CC(=O)c1ccc(OCC(=O)N2CCCCC2)cc1 | > 10 µM (inactive)
CCCCCCCCOC(=O)c1ccccc1C(=O)OCCCCCCCC | > 10 µM (inactive)
Cc1cccc(C)c1NC(=O)CC12CCCN1CCC2 | > 10 µM (inactive)
CCN(CC)CCOc1ccc(C(O)(Cc2ccc(Cl)cc2)c2ccc(C)cc2)cc1 (stereo unspecified) | 3.21 µM
NCCNc1ccc(NCCN)c2c1C(=O)c1ccncc1C2=O | 0.0465 µM

Compound | IC50
CC(=O)Oc1ccc(C2(c3ccc(OC(C)=O)cc3)Oc3ccccc3NC2=O)cc1 | 2.27 µM
O=C(c1ccc(F)cc1)C1CCN(CCn2c(=O)[nH]c3ccccc3c2=O)CC1 | > 10 µM (inactive)
CCCOC(=O)c1cc(O)c(O)c(O)c1 | > 10 µM (inactive)
CO[C@@H]1[C@@H](OC)[C@H](C)[C@@](O)(CC(=O)O)O[C@H]1[C@H](C)[C@H]1O[C@@]2(CC[C@@](C)([C@H]3CC[C@@](C)([C@@H]4O[C@@H]([C@H]5O[C@](C)(O)[C@H](C)C[C@@H]5C)C[C@@H]4OC4C[C@H](OC)[C@@H](OC)[C@H](C)O4)O3)O2)C[C@H](O)[C@H]1C (stereo partly specified) | 0.252 µM
Cc1ccc2nc(N)[nH]c(=O)c2c1Sc1ccncc1 | 7.37 µM (inactive)
COc1cccc2c1C(=O)c1c(O)c3c(c(O)c1C2=O)C[C@@](O)(C(=O)CO)C[C@@H]3O[C@H]1C[C@H](N)[C@H](O)[C@H](C)O1 | 0.0429 µM
CCCCCCCCCCCC[N+](C)(C)Cc1ccccc1 | > 10 µM (inactive)
CC(=O)Nc1ccn(C2COC(COC(=O)c3ccccc3)O2)c(=O)n1 (stereo unspecified) | 2.33 µM
CN(C)c1ccc(C(=C2C=CC(=[N+](C)C)C=C2)c2ccccc2)cc1 | 0.0605 µM
CC[N+](CC)(CC)CCOc1ccc(/C=C/c2ccccc2)cc1 | > 10 µM (inactive)
O=c1[nH]c(=O)n([C@H]2C[C@H](O)[C@@H](CO)O2)cc1F | 0.0216 µM
O=C(CCN1CCC(c2ccccc2)C1)c1ccc2c(c1)OCCO2 (stereo unspecified) | > 10 µM (inactive)
C[C@H]1O[C@@H](O[C@H]2[C@@H](O)C[C@H](O[C@H]3[C@@H](O)C[C@H](O[C@H]4CC[C@@]5(C)[C@H](CC[C@@H]6[C@@H]5CC[C@]5(C)[C@@H](C7=CC(=O)OC7)CC[C@]65O)C4)O[C@@H]3C)O[C@@H]2C)C[C@H](O)[C@@H]1O | 0.011 µM
CC(=O)[O][Hg][c]1ccccc1 | 0.53 µM
COc1ccc(-c2nc3ccc(C4=NNC(=O)CC4C)cc3[nH]2)cc1 (stereo unspecified) | 2.89 µM
O=C1OC(OC(=O)c2cccnc2Nc2cccc(C(F)(F)F)c2)c2ccccc21 (stereo unspecified) | > 10 µM (inactive)
Cc1ccccc1C(=O)Nc1ccc(C(=O)N2CCCC(N(C)C)c3ccccc32)cc1 (stereo unspecified) | > 10 µM (inactive)
CCCCC(=O)O[C@H]1CC[C@H]2[C@@H]3CCc4cc(O)ccc4[C@@H]3CC[C@]12C | > 10 µM (inactive)
